According to patent US20130053350A1, “PPAR-SPARING THIAZOLIDINEDIONES AND COMBINATIONS FOR THE TREATMENT OF NEURODEGENERATIVE DISEASES” (Metabolic Solutions Development Company, LLC, priority 2009, published 2013):

Experiments:
PGC-1α = experiment: Synergy with norepinephrine on expression of PGC-1α mRNA in precursor BAT cells (quantitative PCR); type: cell-based; details: 3 μM compound for seven days, then 1 μM norepinephrine for 2 hours, vs control without compound
Method: Another example of the ability of augmented signaling between cyclic nucleotides and compounds of Formula I is shown by the effect on expression of PGC-1α, a known regulator of mitochondrial biogenesis. Increased numbers of mitochondria are predictive of utility for the reduction of body weight.
Precursor BAT cells were isolated as described above and treated with or without 3 μM compounds: 1.] Compound X: 5-(4-(2-(5-ethylpyridin-2-yl)-2-oxoethoxy)benzyl)-1,3-thiazolidine-2,4-dione; 2.] Compound Y: 5-(4-(2R)-2-(5-ethylpyridin-2-yl)-2-hydroxyethoxyy)benzyl)-1,3-thiazolidine-2,4-dione; or 3.] Compound Z: 5-(4-(2-(3-methoxyphenyl)-2-oxoethoxy)benzyl)-1,3-thiazolidine-2,4-dione for seven days followed by treatment with 1 μM norepinephrine for 2 hours. Total RNA was isolated from the cells and the RNA message (mRNA) for PGC-1α was measured by quantitative polymerase chain reactions.

5XFAD mice = experiment: Thioflavin S stained plaques in the hippocampus of 5XFAD mice; type: in vivo
Method: (§1) 5XFAD mice harbor 5 familial mutations (3 in the amyloid precursor protein; 2 in presenilin 1) and develop robust plaque pathology as early as 6 weeks. These mice were treated beginning at 2 months of age for a period of 4 weeks with control chow or chow containing Compound X to deliver 390 mg/kg for 4 weeks.
Referring to FIG. 7, thioflavin S stained plaques were counted in the hippocampus of the 5XFAD mice. […] Note that the plaques having less than 100 micron size were excluded from the graph, and those amounted to about 70% of all the plaques in both Control and Compound X treated groups.

astrocyte marker GFAP = experiment: GFAP astrocyte marker staining of sections from treated mice; type: in vivo; details: sections from control and treated mice
Method: as §1

PPARγ = details: dosed to full effect for insulin sensitizing actions in vivo; cited from earlier work
[1] = chow delivering 390 mg/kg for 4 weeks, hippocampus, vs control group

With `CCc1ccc(C(=O)COc2ccc(CC3SC(=O)NC3=O)cc2)nc1` (centres unmarked) [Compound X, 5-(4-(2-(5-ethylpyridin-2-yl)-2-oxoethoxy)benzyl)-1,3-thiazolidine-2,4-dione] the “PGC-1α message (mRNA) in the presence of norepinephrine” value (shortened to “PGC-1α message (mRNA) in the presence”) (PGC-1α) was “increase”, the number of plaques (5XFAD mice; [1]) was “less than the control group” and the size of plaques (5XFAD mice; [1]) was “less than the control group”. The “plaques having less than 100 micron size, share of all the plaques” value (5XFAD mice; same in Control and treated groups, excluded from the graph) was “about 70%”.

In the case of `CCc1ccc([C@@H](O)COc2ccc(CC3SC(=O)NC3=O)cc2)nc1` (some centres unmarked) [Compound Y], the “PGC-1α message (mRNA) in the presence” value (PGC-1α) is reported as “increase”.

In the case of `COc1cccc(C(=O)COc2ccc(CC3SC(=O)NC3=O)cc2)c1` (centres unmarked) [Compound Z, 5-(4-(2-(3-methoxyphenyl)-2-oxoethoxy)benzyl)-1,3-thiazolidine-2,4-dione], the “PGC-1α message (mRNA) in the presence” value (PGC-1α) is reported as “increase”.

In the case of `CCc1ccc(C(=O)COc2ccc(CC3SC(=O)NC3=O)cc2)nc1` (centres unmarked) [Mitoglitazone], the “average number of GFAP positively stained cells per section, P value control vs treated” value (astrocyte marker GFAP) is reported as 0.012.

In the case of `CN(CCOc1ccc(CC2SC(=O)NC2=O)cc1)c1ccccn1` (centres unmarked) [rosiglitazone], the “a P2 expression in the liver” value (PPARγ) is given as “increase”.
